Results from patent US20050065218A1, “Utilization of alverine, alone or in combination with tricyclic antidepressant or a specific serotonin reuptake inhibitor for the treatment of depression” (priority 2003, published 2005).
“And” between values parts separate entries of the source, which are not always exact repeats. Equal values may be shown once.

What was measured:
Type in all cases: in vivo
Swiss mice CD1 [1] = assay: forced swim test, Alverine and fluoxetine administered intraperitoneally to mice (Example 3, second test); details: for immobility time, individual animals / immobility time, Mean: 30 minutes prior to the test; for immobility time, Mean: n = 10
Protocol: These are Swiss mice CD1 (CD-1® (ICR) IGS (Charles River France) weighing between 25 and 35 g. […] They are placed 15 to 20 per cage, over an acclimatising period of at least 5 days prior to the tests. They are identified by marking on the fur. […] The mice were divided into two test comprising six groups of 10 mice each. For the second test: The first group is the control group: it is treated only by excipient. […] The doses are expressed in terms of free active substances. The test substances are prepared extemporaneously in a saline solution. The treatments are co-administered 30 minutes prior to the test in a coded and random order intraperitoneally with a volume of 10 ml/kg (5 ml/kg for each administration). […] The total duration of immobility is measured over the last four minutes of the test, six minutes in total. A mouse is deemed immobile when it ceases struggling and floats in the water without movements superfluous to those allowing it to keep its head above water. A drop in immobility time is the reflection of an antidepressant effect. The forced swim test is a pre-clinical behavioural model, which has good predictive validity and is widely employed for determining the efficacy of antidepressant medications (Borsini and Meli, 1988). The results are expressed in total duration of immobility in seconds and as a percentage of variation of the total duration of immobility calculated from the average value of the control group. The statistical significance between two treated groups is determined by using a Student test (P<0.05) The data are analysed using <<SigmaStat>> software.

Swiss mice CD1 [2] = assay: forced swim test, Alverine administered intraperitoneally to mice (Example 1); details: Imipramine 10 mg/kg intraperitoneally
Protocol: To establish the advantages according to the present invention a study was carried out to 50 mice. They were divided into 5 groups of 10 mice each. These are Swiss mice CD1 (CD-1® (ICR) IGS (Charles River France) weighing between 25 and 35 g.
They were placed in a room at a temperature of between 19.5 and 24.5° C. and a relative humidity of 45 to 65% with a light/dark cycle of 12 h, ad libitum access to filtered water and pellets of laboratory-standard food.
They are placed 15 to 20 per cage, over an acclimatising period of at least 5 days prior to the tests. They are identified by marking on the fur.
The substance to be tested is Alverine citrate (Sigma, in the form of dry powder, with a salt/base ratio of 1.68) comparatively to imipramine chlorhydrate (Sigma, in the form of dry powder, with a salt/base ratio of 1.13).
The first group is the control group: it is treated only by excipient.
The second group is treated with Alverine at a dose of 3 mg/kg
The third group is treated with Alverine at a dose of 10 mg/kg
The fourth group is treated with Alverine at a dose of 30 mg/kg
The fifth group is treated with imipramine (tricyclic antidepressant) at a dose of 10 mg/kg
The doses are expressed in terms of free active substances. The substances are prepared extemporaneously in the excipient. The treatments are administered 30 minutes prior to the test in a coded and random order intraperitoneally with a volume of 10 ml/kg.
Thirty minutes following administration the five groups of mice are subjected to the forced swim test, in a vertical Plexiglas cylinder (height 24 cm, diameter 9 cm) containing water (height 6 cm, temperature 18-22° C.). The total duration of immobility is measured over the last four minutes of the test, six minutes in total. A mouse is deemed immobile when it ceases struggling and floats in the water without movements superfluous to those allowing it to keep its head above water. A drop in immobility time is the reflection of an antidepressant effect.
The forced swim test is a pre-clinical behavioural model, which has good predictive validity and is widely employed for determining the efficacy of antidepressant medications (Borsini and Meli, 1988).
The results are expressed in total duration of immobility in seconds and as a percentage of variation of the total duration of immobility calculated from the average value of the control group.
The statistical significance between the treated groups and the control group is determined by a Dunnett test using the residual variation according to analysis of the variance (P<0.05). The data are analysed using <<SigmaStat>> software.

Swiss mice CD1 [3] = assay: forced swim test, Alverine administered orally to mice (Example 2)
Swiss mice CD1 [4] = assay: forced swim test, Alverine and imipramine administered intraperitoneally to mice (Example 3, first test); parameters: key to Dunnett test vs control group: * indicates a significant difference for p < 0.05 (Dunnett test); ns indicates an insignificant result; details: for immobility time, individual animals / immobility time, Mean: 30 minutes prior to the test; for immobility time, Mean: n = 10
Protocol: These are Swiss mice CD1 (CD-1® (ICR) IGS (Charles River France) weighing between 25 and 35 g. […] They are placed 15 to 20 per cage, over an acclimatising period of at least 5 days prior to the tests. They are identified by marking on the fur. […] The mice were divided into two test comprising six groups of 10 mice each. For the first test: The first group is the control group: it is treated only by excipient. The second group is treated with imipramine at a dose of 3 mg/kg The third group is treated with Alverine at a dose of 3 mg/kg The fourth group is treated with Alverine at a dose of 3 mg/kg and imipramine at a dose of 3 mg/kg The fifth group is treated with imipramine at a dose of 10 mg/kg […] The doses are expressed in terms of free active substances. The test substances are prepared extemporaneously in a saline solution. The treatments are co-administered 30 minutes prior to the test in a coded and random order intraperitoneally with a volume of 10 ml/kg (5 ml/kg for each administration). Thirty minutes following administration the six groups of mice are subjected to the forced swim test, in a vertical Plexiglas cylinder (height 24 cm, diameter 9 cm) containing water (height 6 cm, temperature 18-22° C.). The total duration of immobility is measured over the last four minutes of the test, six minutes in total. A mouse is deemed immobile when it ceases struggling and floats in the water without movements superfluous to those allowing it to keep its head above water. A drop in immobility time is the reflection of an antidepressant effect. The forced swim test is a pre-clinical behavioural model, which has good predictive validity and is widely employed for determining the efficacy of antidepressant medications (Borsini and Meli, 1988). The results are expressed in total duration of immobility in seconds and as a percentage of variation of the total duration of immobility calculated from the average value of the control group. The statistical significance between two treated groups is determined by using a Student test (P<0.05) The data are analysed using <<SigmaStat>> software.

[5] = Fluoxetine 3 mg/kg intraperitoneally
[6] = Fluoxetine 10 mg/kg intraperitoneally
[7] = tested alone at 3 mg/kg intraperitoneally
[8] = Imipramine 3 mg/kg intraperitoneally
[9] = Imipramine 10 mg/kg intraperitoneally

CNCCC(Oc1ccc(C(F)(F)F)cc1)c1ccccc1 (stereo not drawn) [Fluoxetine, fluoxetine]
% of variation of immobility time vs control group (Swiss mice CD1 [1]; [5]): −30% | Dunnett test vs control group (Swiss mice CD1 [1]; [5]): * (* indicates a significant difference for p < 0.05 (Dunnett test)) | immobility time, individual animals (Swiss mice CD1 [1]; [5]): 149 s and 18 s and 101 s and 99 s and 10 s and 100 s and 103 s | immobility time, Mean (Swiss mice CD1 [1]; [5]): 105.6 s | % of variation of immobility time vs control group (Swiss mice CD1 [1]; [6]): −45% | Dunnett test vs control group (Swiss mice CD1 [1]; [6]): * (* indicates a significant difference for p < 0.05 (Dunnett test)) | immobility time, individual animals (Swiss mice CD1 [1]; [6]): 76 sec (2×) and 83 sec and 105 sec and 90 sec and 28 sec and 88 sec and 34 sec | immobility time, Mean (Swiss mice CD1 [1]; [6]): 82.7 s | decrease in the duration of immobilisation as compared to the control group (in words) (Swiss mice CD1 [1]; [7]): statistically significant decrease

CN(C)CCCN1c2ccccc2CCc2ccccc21 [Imipramine, imipramine]
% of variation of immobility time vs control group (Swiss mice CD1 [2]): −62% | Dunnett test vs control group (Swiss mice CD1 [2]): * (* indicates a significant difference for p < 0.05 (Dunnett test)) | immobility time, individual animals (Swiss mice CD1 [2]; 30 minutes prior to the test): 67 s and 70 s and 1 s and 89 s and 3 s and 9 s and 38 s and 99 s and 53 s and 65 s | immobility time, Mean (Swiss mice CD1 [2]; 30 minutes prior to the test, N = 10): 49.4 s | % of variation of immobility time vs control group (Swiss mice CD1 [3]; Imipramine 30 mg/kg orally): −58% | Dunnett test vs control group (Swiss mice CD1 [3]; Imipramine 30 mg/kg orally): * (* indicates a significant difference for p < 0.05 (Dunnett test)) | immobility time compared with mice treated with Alverine (Swiss mice CD1 [3]; Imipramine 30 mg/kg orally vs Alverine 100 mg/kg orally): comparable to the mice of the fourth group treated at 100 mg/kg of Alverine | immobility time, individual animals (Swiss mice CD1 [3]; Imipramine 30 mg/kg orally, 60 minutes prior to the test): 52 s and 64 s and 55 s and 5 s and 75 s and 67 s and 70 s and 89 s and 45 s and 96 s | immobility time, Mean (Swiss mice CD1 [3]; Imipramine 30 mg/kg orally, 60 minutes prior to the test, N = 10): 61.9 s | % of variation of immobility time vs control group (Swiss mice CD1 [4]; [8]): −24% | Dunnett test vs control group (Swiss mice CD1 [4]; [8]): ns | immobility time, individual animals (Swiss mice CD1 [4]; [8]): 121 sec (2×) and 70 sec and 74 sec and 122 sec and 93 sec and 94 sec and 141 sec and 133 sec and 123 sec | immobility time, Mean (Swiss mice CD1 [4]; [8]): 109.2 s | % of variation of immobility time vs control group (Swiss mice CD1 [4]; [9]): −67% | Dunnett test vs control group (Swiss mice CD1 [4]; [9]): * (* indicates a significant difference for p < 0.05 (Dunnett test)) | immobility time, individual animals (Swiss mice CD1 [4]; [9]): 0 s and 62 s and 38 s and 54 s and 45 s and 92 s and 26 s and 77 s and 80 s and 4 s | immobility time, Mean (Swiss mice CD1 [4]; [9]): 47.8 s | decrease in the duration of immobilisation as compared to the control group (in words) (Swiss mice CD1 [4]; [7]): statistically insignificant decrease
